# Measurements from patent US9181290B2, “Inhibition of biofilm formation by 1,2,3,4,6-penta-O-galloyl-D-glucopyranose” (CHANG GUNG UNIVERSITY, priority 2011, dated 2015).
# Columns and labels:
# [1] = test system: S. epidermidis RP62A (ATCC 35984); assay: Growth (A578) and biofilm (A595) in polystyrene plates; format: cell-based, Staphylococcus epidermidis
# Description: In addition to the above S. aureus strains, S. epidermidis ATCC 35547 and S. epidermidis RP62A (ATCC 35984) were also studied for comparison.
# An overnight bacterial culture was 200-fold diluted with TSBg, and a 200 μL aliquot of the diluted culture was seeded into each well of 96-well polystyrene microtiter plates and incubated at 37° C. for a designated period of time. Cell growth was determined by measuring the absorbance at 578 nm (A578) with a microtiter plate reader (SpectraMax 340, Molecular Devices). After washing with PBS twice to remove suspended cells, the wells were stained with 0.1% (w/v) crystal violet in 10% ethanol and then treated with 30% acetic acid in dH2O, followed by detecting the absorbance at 595 nm (A595) with the microtiter plate reader to quantify the amount of biofilm formed on polystyrene surface.
# [2] = test system: S. aureus SA113Δica (ATCC 35556Δica::tet); assay: Biofilm formation by ica deletion mutant on polycarbonate surface; format: cell-based, Staphylococcus aureus; details: 6 hrs
# Description: To quantify the amount of biofilm formed on polycarbonate surface, a 13-mm-diameter polycarbonate disc (Thermanox, Nalgene Nunc International, Rochester, N.Y., USA) was placed in a well of a 24-well microtiter plate, followed by the addition of 1 mL aliquot of the diluted bacterial culture. After incubation at 37° C. for a designated period of time, viable cells were washed off the surface of the polycarbonate disc with PBS and counted as described above, while the PBS-washed polycarbonate disc was subjected to crystal violet staining for biofilm quantification as described above.
# [3] = test system: S. aureus SA113; assay: Scanning electron microscopy of cells on polycarbonate discs; format: cell-based, Staphylococcus aureus; details: 3.13 μM, 6 hrs
# Description: S. aureus SA113 cells were grown on polycarbonate discs in the presence or absence of 3.13 μM β-PGG. After 6 hours incubation, the discs were washed three times with PBS to remove planktonic cells and then prepared for SEM examination as described elsewhere (Guo-Xian Wei et al. (2006), supra). The samples thus prepared were observed using a Hitachi S-5000 scanning electron microscope.
compound,measurement,setting,value
"O=C(OC[C@H]1O[C@@H](OC(=O)c2cc(O)c(O)c(O)c2)[C@H](OC(=O)c2cc(O)c(O)c(O)c2)[C@@H](OC(=O)c2cc(O)c(O)c(O)c2)[C@@H]1OC(=O)c1cc(O)c(O)c(O)c1)c1cc(O)c(O)c(O)c1 [β-PGG, 1,2,3,4,6-penta-O-galloyl-β-D-glucopyranose]",reduction of biofilm formation,[1]; 12.5 μM,35%
same,Growth (A578),"[1]; 12.5 μM β-PGG, 6 hr, 0 μM: 0.57 ± 0.09",0.56 ± 0.09
same,Biofilm (A595),"[1]; 12.5 μM β-PGG, 6 hr, 0 μM: 6.43 ± 0.04",4.18 ± 0.54
same,"decrease of the amount of biofilm, polycarbonate surface",[2]; 3.13 μM,67%
same,"decrease of the amount of biofilm, polycarbonate surface",[2]; 12.5 μM,96%
same,web structure (likely PIA) on polycarbonate surface by SEM,[3],caused the web structure to disappear
